Data as given in patent US20080125495A1, “Ameliorant For Renal Insufficiency” (MEIJI DAIRIES CORPORATION, priority 2004, published 2008).

Test system: diabetes model rats
Experiment: Renal dysfunction parameters in STZ-induced diabetes model rats (kidney weight, serum creatinine, serum urea nitrogen, MDA in kidney)
Format: in vivo, SD rats
Experimental: To 8 weeks old male SD rats, 50 mg/kg of STZ (streptozotocin, manufactured by Wako Pure Chemical Industries, Ltd.) was intraperitoneally administered, thereby inducing diabetes. The diabetes model rats were divided into four groups: as therapeutic groups, 2,4,4-trimethyl-3(15-hydroxypentadecyl)-2-cyclohexen-1-one ([…]) synthesized by a method described in JP-A-2000-297034 was intraperitoneally administered once a day continuously for 4 or 8 weeks; and as controls, a non-therapeutic group with diabetes alone (Diabetic Control) and a control group without treatment were prepared. After 4 or 8 weeks, serum and both kidneys were removed from the rats. The right kidney was stored in a frozen state and the left kidney was subjected to formalin fixation.
Increase of kidney weight, elevation of serum creatinine level, and increase of MDA in kidney may be observed by renal dysfunction caused by diabetes.

[1] = 2 mg/kg i.p. once a day, 4 weeks after STZ administration
[2] = 2 mg/kg i.p. once a day, 8 weeks after STZ administration
[3] = 8 mg/kg i.p. once a day, 4 weeks after STZ administration
[4] = 8 mg/kg i.p. once a day, 8 weeks after STZ administration
[5] = 8 mg/kg, eighth week after STZ administration
[6] = 8 mg/kg, fourth week after STZ administration

Structure (SMILES): CC1=C(CCCCCCCCCCCCCCCO)C(C)(C)CCC1=O [Compound 1, 2,4,4-trimethyl-3(15-hydroxypentadecyl)-2-cyclohexen-1-one]
- increase of MDA in kidney (in words) (2 mg/kg): markedly suppressed
- Serum creatinine [1]: 2.354 ± 0.254 mg/dL
- Serum urea nitrogen [1]: 51.00 ± 3.78 mg/dL
- Weight of kidney [1]: 1.33 ± 0.05 g
- Serum creatinine [2]: 2.504 ± 0.253 mg/dL
- Serum urea nitrogen [2]: 60.78 ± 5.34 mg/dL
- Weight of kidney [2]: 1.59 ± 0.04 g
- elevation of serum creatinine level (in words) (4 mg/kg, eighth week after STZ administration): tendency of the suppression
- increase of MDA in kidney (in words) (8 mg/kg): markedly suppressed
- Serum creatinine [3]: 1.004 ± 0.118 mg/dL
- Serum urea nitrogen [3]: 41.76 ± 3.60 mg/dL
- Weight of kidney [3]: 1.27 ± 0.07 g
- Serum creatinine [4]: 1.836 ± 0.228 mg/dL
- Serum urea nitrogen [4]: 53.69 ± 2.97 mg/dL
- Weight of kidney [4]: 1.33 ± 0.05 g
- elevation of serum creatinine level (in words) [5]: markedly suppressed
- increase of kidney weight (in words) [5]: markedly suppressed
- elevation of serum creatinine level (in words) [6]: markedly suppressed
- elevation of serum urea nitrogen (in words) [6]: markedly suppressed
- increase of kidney weight (in words) (rats to which the compound was administered, fourth week after STZ administration): suppressed
